Laboratory results as given in BigSolDB 2.1.

CC(=O)c1c(C)c2cnc(Nc3ccc(N4CCNCC4)cn3)nc2n(C2CCCC2)c1=O
solubility (mole fraction)
Conditions	293.15 K	298.15 K	303.15 K	308.15 K	313.15 K	318.15 K	323.15 K	328.15 K	333.15 K
in DMF	6.17e-05	8.25e-05	0.000103	0.000131	0.000166	0.000202	0.000246	0.000293	0.000351
in DMSO	6.57e-05	7.82e-05	9.62e-05	0.00012	0.000146	0.000172	0.000198	0.000246	0.000302
in THF	7.14e-05	9.81e-05	0.000143	0.000189	0.00025	0.000329	0.000417	0.000536	0.000696
in acetone	5.73e-05	7.32e-05	9.12e-05	0.000111	0.000138	0.000165	0.000199	0.000238	0.000278
in anisole	1.32e-05	1.41e-05	1.51e-05	1.67e-05	1.79e-05	1.87e-05	1.98e-05	2.02e-05	2.17e-05
in chlorobenzene	3.96e-05	5.28e-05	6.9e-05	8.91e-05	0.000116	0.000148	0.000189	0.000239	0.000302
in ethanol	2.11e-05	2.66e-05	3.03e-05	3.61e-05	4.12e-05	4.81e-05	5.6e-05	6.41e-05	7.27e-05
in ethyl acetate	1.44e-05	1.6e-05	2.06e-05	2.4e-05	3.08e-05	3.63e-05	4.42e-05	5.13e-05	5.98e-05
in m-xylene	3.74e-05	4.12e-05	5.23e-05	6.44e-05	8.24e-05	9.8e-05	0.000119	0.000147	0.000171
in methanol	1.1e-05	1.43e-05	1.97e-05	2.54e-05	3.43e-05	4.52e-05	5.71e-05	7.15e-05	9.01e-05
in o-xylene	3.21e-05	3.62e-05	4.29e-05	4.88e-05	5.57e-05	6.38e-05	7.18e-05	8.16e-05	9.67e-05
in pyridine	9.37e-05	0.000111	0.000127	0.000142	0.000159	0.000177	0.000196	0.000215	0.000236
in toluene	4.72e-05	5.67e-05	6.78e-05	8.01e-05	9.44e-05	0.00011	0.000129	0.000152	0.000178
in water	9.4e-06	1.18e-05	1.35e-05	1.7e-05	2.11e-05	2.52e-05	3.01e-05	3.63e-05	4.34e-05
